Laboratory results reported in ChEMBL document CHEMBL5729738, “Inhibitors of RAF kinases” (2023).

Biological target: RAF proto-oncogene serine/threonine-protein kinase (Homo sapiens, UniProt P04049)
Assay: Kinase Assay: Protein kinase assay: Assay platform was used to measure kinase/inhibitor interactions as described previously (Anastassiadis et al., 2011). In brief, for each reaction, kinase and substrate were mixed in a buffer containing 20 mM HEPES (pH 7.5), 10 mM MgCl2, 1 mM EGTA, 0.02% Brij35, 0.02 mg/mL BSA, 0.1 mM Na3VO4, 2 mM DTT, and 1% DMSO. All compounds were solubilized in DMSO. Compounds were then added to each reaction mixture via acoustic dispense using an ECHO 550 nanoliter dispenser. For human RAF1 testing, human MEK1 (K97R) was used as a substrate at a concentration of 3 micromolar, with a final ATP concentration of 10 micromolar. For human BRAF testing, human MEK1 (K97R) was used as a substrate at 1 micromolar concentration, with a final ATP concentration of 25 micromolar. […] After a 20-min incubation, ATP (Sigma-Aldrich, St. Louis, Mo. 63178) and [g33P] ATP (specific activity 10 microCi/microliter) purchased at PerkinElmer (Boston, Mass., 02118 Cat #BLU 003H250UC) were added at a final total concentration of 10 mM. Reactions were carried out at room temperature for 2 hr and spotted onto P81 ion exchange cellulose chromatography paper (Reaction Biology). Filter paper was washed in 0.75% phosphoric acid to remove unincorporated ATP. The percent remaining kinase activity relative to a vehicle-containing (DMSO) kinase reaction was calculated for each kinase/inhibitor pair. […]

Sequence of RAF proto-oncogene serine/threonine-protein kinase (P04049 whole entry): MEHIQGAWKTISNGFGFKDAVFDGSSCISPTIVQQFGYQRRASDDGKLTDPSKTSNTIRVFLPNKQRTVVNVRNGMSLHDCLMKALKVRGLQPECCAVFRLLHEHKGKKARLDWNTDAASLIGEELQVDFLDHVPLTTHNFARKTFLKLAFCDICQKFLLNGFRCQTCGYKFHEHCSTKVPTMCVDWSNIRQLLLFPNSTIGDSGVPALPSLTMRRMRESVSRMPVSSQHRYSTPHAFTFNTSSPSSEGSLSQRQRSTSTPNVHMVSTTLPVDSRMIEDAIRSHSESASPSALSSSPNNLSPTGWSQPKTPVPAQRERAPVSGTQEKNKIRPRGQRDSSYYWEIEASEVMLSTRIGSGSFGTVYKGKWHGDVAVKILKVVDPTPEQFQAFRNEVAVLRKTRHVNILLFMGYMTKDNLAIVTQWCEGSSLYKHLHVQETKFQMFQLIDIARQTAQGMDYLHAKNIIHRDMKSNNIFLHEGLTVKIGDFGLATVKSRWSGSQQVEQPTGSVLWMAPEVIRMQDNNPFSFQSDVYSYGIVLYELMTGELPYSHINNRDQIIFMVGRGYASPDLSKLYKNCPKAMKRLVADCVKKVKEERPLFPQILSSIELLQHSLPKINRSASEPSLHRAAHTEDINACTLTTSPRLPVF

IC50: < 10 nM
SMILES: CNc1ncc2cc(-c3cc(NC(=O)N4CC[C@H](C(F)(F)F)C4)c(F)cc3C)c(C)nc2n1
